Data on seven compounds can be found in patent US12303898B2, “Microfluidic devices and methods of use” (The Governing Council of the University of Toronto, priority 2018, dated 2025).

One data set deals with T1, QPCTL (Homo sapiens, UniProt Q9NXS2).
T1 construct: endogenous in cells; host or cells: HAP1 cells (Horizon, clone C631)
Kind of data set: Flow cytometry and immunofluorescence of CD47 antibody binding in HAP1 cells after QPCTL inhibitor treatment. The note with it: inhibitor treatment (FIG. 14B, 14D, 14E), CC2C6 detects pyro-Glu modified CD47. The class given is cell-based.

In another data set the test system is CD47. Description: Validation of CD47 sgRNA knock-out HAP1 cell lines by flow cytometry and microfluidic sorting. The data set is classed as cell-based, human. The settings on record: HAP1 cells, CD47 gene (FIG. 11C). The text has this: As shown in FIG. 11A-C, this included sorting the wildtype (WT) HAP1 cells at different flow rates to decide on the ideal operating conditions, assessing the sorting of HAP1 cells transduced with sgRNAs targeting the CD47 gene (which should result in a decrease in the number of CD47+ cells), and mixing WT and clone cells together, sorting them and recovering the initial ratios. Experimental parameters were designed to have the majority of WT HAP1s be sorted into the middle bin thus upregulation and downregulation of CD47 could be assessed. […]
MICS sorting. […] Cells were sorted by MICS at a concentration of ˜5×10^6 cells/ml in HBSS with 2% BSA; initial cell concentration was measured using a Countess Automated Cell Counter (Invitrogen). […] Sorted samples were collected in their respective syringes, and the volume of solution collected in each syringe was measured by weight. […] Each sample was then loaded onto a 10-chambered microscope slide (Quick Read 3805, Globe Scientific) and cells were counted under fluorescent excitation using a custom counting macro and a Nikon TI Eclipse microscope. Sort efficiency was calculated by dividing the number of cells collected in the medium and high outlets by the total number of cells collected (low, medium and high). […]

In another data set the test system is QPCT target loci. Kind of data set: CRISPR editing analysis (TIDE / ICE) of double-sgRNA infected samples, QPCT target loci. The class given is cell-based, human. The settings on record: two independent experiments; for KO-score: ICE; for mean percent edited: TIDE. How it is done:
(§1) Generation of CD47, QPCT and QPCTL knock-out cells. For transduction experiments using cell pools, single-stranded sgRNA oligos were annealed using T4 PNK in T4 ligation buffer (both NEB), and ligated into digested (BsmBI; NEB), phosphatase-treated (rSAP or CIP, NEB) and gel-purified modified pLCKO (for HAP1-Cas9) or pLCV2 (for HAP1, 293T and KMS11) backbones^24,25 using T4 DNA ligase. All plasmids were Sanger sequence verified and virus was prepared and titered as described above. HAP1, HAP1-Cas9 cells, 293T cells or KMS11 cells were infected with target and control gRNAs (MOI<1) in presence of 8 μg/ml polybrene. 24 h post infection, the medium was replaced with fresh medium containing puromycin (1 ug/ml for HAP1 and HAP1-Cas9, 1-2 ug/ml for 293T, 0.5 ug/ml for KMS11) and cells were incubated for 48 h. Cells were further cultured in selection-free medium as indicated for individual experiments (typically T3-T6), and passaged every 3-4 days. […] For infections with two sgRNAs (HAP1-Cas9 only), the second sgRNA was cloned into pLCKO hygro. Selection was carried out in puromycin (1 ug/ml) and hygromycin (800 ug/ml)-containing medium for the first 48 h, then in hygromycin-only medium for further 4-5 days. For single-cell knock-out clones (HAP1 only), sgRNAs were cloned into modified PX459v2.0 (from Addgene #62988, 1 kb stuffer sequence added). HAP1 cells were transfected using Lipofectamine 3000 (3.75 μl and 2.3 μg plasmid per 6-well), selected with puromycin for 48 h as above and seeded in limiting dilutions (1 cell/100 μl/96-well) 3 days later. Single-cell colonies were expanded, cryo-banked (in standard medium with 10% DMSO and a total of 20% FBS) and analyzed for mutations as described below. An sgRNA targeting the AAVS1 locus was used as negative control.
CRISPR editing analysis. For analysing indels after CRISPR-mediated editing, genomic DNA was isolated using the QIAamp DNA Blood Mini kit (Qiagen) or the Extracta DNA Prep kit (Quantabio). sgRNA target regions (100-200 bp up- and 500 bp downstream of sgRNA sequence) were amplified by touchdown PCR (−0.5° C./cycle from 72° C. to 60° C. plus 10 additional cycles at 59° C.) from 50-100 ng input DNA, PCR products were purified using the PureLink Quick PCR purification kit (Invitrogen) if necessary and analyzed by Sanger sequencing. Sequences were analyzed to determine the percentage of edited sequences contained in the sample using TIDE^49 and a “KO-score” using ICE^50 (Synthego). Non-edited cells amplified with the same primers were used as control samples. A representative analysis of double-sgRNA infected samples from two independent experiments yielded the following editing results for QPCT and QPCTL target loci (by sgRNA; mean percent edited/KO-score±SD): QPCTL #1 58.2/NA±16.2/N, QPCTL #2 33.23/47±32.96/0, QPCT #1 33.15/56±36.51/0, QPCT #2 80.2/76.4±19.85/2.42, QPCT #3 68.18/36.33±4.29/2.08; AAVS1/CD47 #1 (background or off-target, mean±SD over all QPCT and QPCTL target loci) 14.4/1.33±14.95/0.58. For single-cell derived clones, TIDE and ICE were used for screening purposes, and mutations were independently confirmed by PCR, Sanger sequencing and sequence alignment as described.

The next data set has as its system QPCTL target loci. Description: CRISPR editing analysis (TIDE / ICE) of double-sgRNA infected samples, QPCTL target loci. The data set is classed as cell-based, human. The settings on record: two independent experiments; for mean percent edited: TIDE. The procedure:
as §1, with “For single-cell knock-out clones (HAP1 only), sgRNAs were cloned into modified PX459v2.0 (from Addgene #62988, 1 kb stuffer sequence added). HAP1 cells were transfected using Lipofectamine 3000 (3.75 μl and 2.3 μg plasmid per 6-well), selected with puromycin for 48 h as above and seeded in limiting dilutions (1 cell/100 μl/96-well) 3 days later.” left out, “An sgRNA targeting the AAVS1 locus was used as negative control.” left out
CRISPR editing analysis. For analysing indels after CRISPR-mediated editing, genomic DNA was isolated using the QIAamp DNA Blood Mini kit (Qiagen) or the Extracta DNA Prep kit (Quantabio). sgRNA target regions (100-200 bp up- and 500 bp downstream of sgRNA sequence) were amplified by touchdown PCR (−0.5° C./cycle from 72° C. to 60° C. plus 10 additional cycles at 59° C.) from 50-100 ng input DNA, PCR products were purified using the PureLink Quick PCR purification kit (Invitrogen) if necessary and analyzed by Sanger sequencing. Sequences were analyzed to determine the percentage of edited sequences contained in the sample using TIDE^49 and a “KO-score” using ICE^50 (Synthego). […]

T1 sequence (Q9NXS2 whole entry): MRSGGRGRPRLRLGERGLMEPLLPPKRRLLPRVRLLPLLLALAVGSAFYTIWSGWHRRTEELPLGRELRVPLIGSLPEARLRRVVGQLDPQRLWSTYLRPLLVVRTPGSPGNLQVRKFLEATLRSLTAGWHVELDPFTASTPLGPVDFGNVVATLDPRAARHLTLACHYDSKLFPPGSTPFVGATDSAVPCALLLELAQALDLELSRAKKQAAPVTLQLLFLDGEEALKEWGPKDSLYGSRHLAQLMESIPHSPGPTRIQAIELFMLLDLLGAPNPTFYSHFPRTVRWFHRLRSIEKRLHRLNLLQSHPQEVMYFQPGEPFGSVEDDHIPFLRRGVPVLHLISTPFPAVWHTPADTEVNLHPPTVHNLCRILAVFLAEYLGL

With `CCCOc1ccc([C@H]2CNC(=O)N2c2ccc3[nH]cnc3c2)cc1` [PQ912], at QPCTL, the CC2C6 binding entry is “decreased”. For “Guide #4: sgRNA targeting CD47 from the TKOv3 library, sequence GAAGACTATACAACCTCCTA (chemistry not fully specified)”, in the data set with CD47, the gene inactivation result is given as “ineffective at gene inactivation”. On to “QPCT #1: sgRNA from the TKOv3 library, sequence TCAAGGATCACTCTTTGGAG (chemistry not fully specified)”, for which, in the data set on QPCT target loci, the KO-score is 56 and the mean percent edited came out at 33.15%. The matching figures for “QPCT #2: sgRNA from the TKOv3 library, sequence AGAGGCACCAGCCAACTGCA (chemistry not fully specified)”: 76.4 and 80.2%. On the same counts, the results for “QPCT #3: sgRNA from the TKOv3 library, sequence GACCAAATGTCGTTTAGCAG (chemistry not fully specified)” are 36.33 and 68.18%.

On to “QPCTL #1: sgRNA from the TKOv3 library, sequence GGGTTCGCACAACCAGCAGG (chemistry not fully specified)”, for which, in the data set with QPCTL target loci, the mean percent edited is on record as 58.2%. In turn, “QPCTL #2: sgRNA from the TKOv3 library, sequence ACAGGGCACAGCCGAATCCG (chemistry not fully specified)” yielded a KO-score in the data set on QPCTL target loci (ICE) of 47. The compound also gave a mean percent edited in the data set on QPCTL target loci of 33.23%.
